Experimental data from patent US12478624B2, “Heterocyclic derivatives, pharmaceutical compositions and their use in the treatment or amelioration of cancer” (Tolremo Therapeutics AG, priority 2019, dated 2025).

Assays:
A375 cells = experiment: Assay 1: A375 cells treated with S1152, S1008 and compound, immunofluorescence (sc-365823) signal; assay type: cell-based; details: 1 μM S1152 + 0.5 μM S1008, one day
In short: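 A375 cells treated one day with 1 μM S1152, 0.5 μM S1008 and compound dose ranges in DMEM/10% FCS, then fixed, permeabilised and immunostained. Green signal normalised to nuclear counterstain (ethidium-type or DAPI), log ratio fitted by four-parameter regression for EC50.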

OPM-2 = experiment: Assay 2: multiple myeloma cellular efficacy, PrestoBlue cell proliferation/survival; assay type: cell-based; details: Homo sapiens, 96 h, OPM-2 cells, 4 days
Procedure: Multiple Myeloma Cellular Efficacy:
10000 OPM-2 (ACC50; DSMZ) were plated into wells of a 384 well plate (Greiner 781090). Cells were treated for 4 days with a dose range of compound or vehicle. At the end of the experiment cells were stained directly with PrestoBlue (ThermoFisher Scietific; A13262) for 2 hours at 37° C. in a humidified incubator according to manufactor's instruction. To assess the relative cell number the PrestoBlue signal was measured using either a TecanM1000Pro reader or a Tecan Sparks reader following the manufactor's instructions. Background (no cells) values were subtracted and set in relation to the vehicle control. To assess the EC50 of each compound the relative fluorescence value was plotted against the compound concentration after log transformation. Data were fitted in a nonlinear manner with a variable slope (four parameters) using graphpad prism software. Cellular efficacy of compounds was evaluated in the multiple myeloma cell line OPM-2 using the cell proliferation/survival assay PrestoBlue. EC50 values are classified as indicated below.

| Compound | EC50 (A375 cells) | EC50 (OPM-2) |
| --- | --- | --- |
| CC(=O)N1C[C@H](c2nc(Nc3cc(-c4cnn(C)c4)cc(C(F)F)c3)cc(-c3cccnc3)n2)CC[C@@H]1C [Compound 00057, 1-((2S,5R)-5-(4-((3-(difluoromethyl)-5-(1-methyl-1H-pyrazol-4-yl)phenyl)amino)-6-(pyridin-3-yl)pyrimidin-2-yl)-2-methylpiperidin-1-yl)ethan-1-one] | < 200 nM | < 200 nM |
| CC(=O)N1C[C@H](c2nc(Nc3cccc(C(C)(F)F)c3)cc(-c3cccnc3)n2)CC[C@@H]1C [Compound 00058, 1-((2S,5R)-5-(4-((3-(1,1-difluoroethyl)phenyl)amino)-6-(pyridin-3-yl)pyrimidin-2-yl)-2-methylpiperidin-1-yl)ethan-1-one] | < 200 nM | 200 to 1000 nM |
| CC(=O)Nc1cc(Nc2cc(-c3cnccn3)nc([C@@H]3CC[C@H](C)N(C(C)=O)C3)n2)cc(C(F)F)c1 [Compound 00059, N-(3-((2-((3R,6S)-1-acetyl-6-methylpiperidin-3-yl)-6-(pyrazin-2-yl)pyrimidin-4-yl)amino)-5-(difluoromethyl)phenyl)acetamide] | < 200 nM | < 200 nM |
| CC(=O)Nc1cc(Nc2cc(-c3cccnc3)nc([C@@H]3CC[C@H](C)N(C(C)=O)C3)n2)cc(C(F)F)c1 [Compound 00060, N-(3-((2-((3R,6S)-1-acetyl-6-methylpiperidin-3-yl)-6-(pyridin-3-yl)pyrimidin-4-yl)amino)-5-(difluoromethyl)phenyl)acetamide] | 200 to 1000 nM | < 200 nM |
| CC(=O)N1C[C@H](c2nc(Nc3cccc(-c4nnn(C)n4)c3)cc(-c3cccnc3)n2)CC[C@@H]1C [Compound 00062, 1-((2S,5R)-2-methyl-5-(4-((3-(2-methyl-2H-tetrazol-5-yl)phenyl)amino)-6-(pyridin-3-yl)pyrimidin-2-yl)piperidin-1-yl)ethan-1-one] | < 200 nM | < 200 nM |
| CC(=O)N1C[C@H](c2nc(Nc3cccc(-n4cnnn4)c3)cc(-c3cccnc3)n2)CC[C@@H]1C [Compound 00063, 1-((2S,5R)-5-(4-((3-(1H-tetrazol-1-yl)phenyl)amino)-6-(pyridin-3-yl)pyrimidin-2-yl)-2-methylpiperidin-1-yl)ethan-1-one] | < 200 nM | 200 to 1000 nM |
| CC(=O)N1C[C@H](c2nc(Nc3cccc(-c4noc(C)n4)c3)cc(-c3cnccn3)n2)CC[C@@H]1C [Compound 00064, 1-((2S,5R)-2-methyl-5-(4-((3-(5-methyl-1,2,4-oxadiazol-3-yl)phenyl)amino)-6-(pyrazin-2-yl)pyrimidin-2-yl)piperidin-1-yl)ethan-1-one] | < 200 nM | < 200 nM |
| COc1cc(F)cc(Nc2cc(-c3cnccn3)nc([C@@H]3CC[C@H](C)N(C(C)=O)C3)n2)c1 [Compound 00067, 1-((2S,5R)-5-(4-((3-fluoro-5-methoxyphenyl)amino)-6-(pyrazin-2-yl)pyrimidin-2-yl)-2-methylpiperidin-1-yl)ethan-1-one] | < 200 nM | < 200 nM |
| CC(=O)N1C[C@H](c2nc(Nc3cccc(-c4cn(C)nn4)c3)cc(-c3cnccn3)n2)CC[C@@H]1C [Compound 00068, 1-((2S,5R)-2-methyl-5-(4-((3-(1-methyl-1H-1,2,3-triazol-4-yl)phenyl)amino)-6-(pyrazin-2-yl)pyrimidin-2-yl)piperidin-1-yl)ethan-1-one] | < 200 nM | < 200 nM |
| CC(=O)N1C[C@H](c2nc(Nc3cc(F)cc(N4CCOCC4)c3)cc(-c3cnccn3)n2)CC[C@@H]1C [Compound 00070, 1-((2S,5R)-5-(4-((3-fluoro-5-morpholinophenyl)amino)-6-(pyrazin-2-yl)pyrimidin-2-yl)-2-methylpiperidin-1-yl)ethan-1-one] | < 200 nM | < 200 nM |
| CC(=O)N1C[C@H](c2nc(Nc3cccc(-n4ccc(C)n4)c3)cc(-c3cccnc3)n2)CC[C@@H]1C [Compound 00077, 1-((2S,5R)-2-methyl-5-(4-((3-(3-methyl-1H-pyrazol-1-yl)phenyl)amino)-6-(pyridin-3-yl)pyrimidin-2-yl)piperidin-1-yl)ethan-1-one] | < 200 nM | 200 to 1000 nM |
| CC(=O)N1C[C@H](c2nc(Nc3cccc(-n4cncn4)c3)cc(-c3cccnc3)n2)CC[C@@H]1C [Compound 00078, 1-((2S,5R)-5-(4-((3-(1H-1,2,4-triazol-1-yl)phenyl)amino)-6-(pyridin-3-yl)pyrimidin-2-yl)-2-methylpiperidin-1-yl)ethan-1-one] | < 200 nM | < 200 nM |
| CC(=O)N1C[C@H](c2nc(Nc3cccc(NC(=O)c4ccccc4)c3)cc(-c3cccnc3)n2)CC[C@@H]1C [Compound 00079, N-(3-((2-((3R,6S)-1-acetyl-6-methylpiperidin-3-yl)-6-(pyridin-3-yl)pyrimidin-4-yl)amino)phenyl)benzamide] | < 200 nM | < 200 nM |
| CC(=O)N1C[C@H](c2nc(Nc3cccc(F)c3)cc(-c3cccnc3)n2)CC[C@@H]1C [Compound 00080, 1-((2S,5R)-5-(4-((3-fluorophenyl)amino)-6-(pyridin-3-yl)pyrimidin-2-yl)-2-methylpiperidin-1-yl)ethan-1-one] | < 200 nM | 200 to 1000 nM |
| CC(=O)N1C[C@H](c2nc(Nc3cccc(-n4ccnn4)c3)cc(-c3cccnc3)n2)CC[C@@H]1C [Compound 00083, 1-((2S,5R)-5-(4-((3-(1H-1,2,3-triazol-1-yl)phenyl)amino)-6-(pyridin-3-yl)pyrimidin-2-yl)-2-methylpiperidin-1-yl)ethan1-one] | < 200 nM | 200 to 1000 nM |
| COCC(=O)Nc1cccc(Nc2cc(-c3cccnc3)nc([C@@H]3CC[C@H](C)N(C(C)=O)C3)n2)c1 [Compound 00084, N-(3-((2-((3R,6S)-1-acetyl-6-methylpiperidin-3-yl)-6-(pyridin-3-yl)pyrimidin-4-yl)amino)phenyl)-2-methoxyacetamide] | < 200 nM | 200 to 1000 nM |
| CC(=O)Nc1cccc(Nc2cc(-c3cncc4c3ccn4C)nc([C@@H]3CC[C@H](C)N(C(C)=O)C3)n2)c1 [Compound 00085, N-(3-((2-((3R,6S)-1-acetyl-6-methylpiperidin-3-yl)-6-(1-methyl-1H-pyrrolo[2,3-c]pyridin-4-yl)pyrimidin-4-yl)amino)phenyl)acetamide] | < 200 nM | < 200 nM |
| CC(=O)N1C[C@H](c2nc(Nc3cccc(N4CCC4=O)c3)cc(-c3cccnc3)n2)CC[C@@H]1C [Compound 00087, 1-(3-((2-((3R,6S)-1-acetyl-6-methylpiperidin-3-yl)-6-(pyridin-3-yl)pyrimidin-4-yl)amino)phenyl)azetidin-2-one] | < 200 nM | 200 to 1000 nM |
| CC(=O)N1C[C@H](c2nc(Nc3cccc(N4CCOC4=O)c3)cc(-c3cccnc3)n2)CC[C@@H]1C [Compound 00088, 3-(3-((2-((3R,6S)-1-acetyl-6-methylpiperidin-3-yl)-6-(pyridin-3-yl)pyrimidin-4-yl)amino)phenyl)oxazolidin-2-one] | < 200 nM | 200 to 1000 nM |
| CC(=O)N1C[C@H](c2nc(Nc3cccc(NC(=O)C4CC4)c3)cc(-c3cccnc3)n2)CC[C@@H]1C [Compound 00089, N-(3-((2-((3R,6S)-1-acetyl-6-methylpiperidin-3-yl)-6-(pyridin3-yl)pyrimidin-4-yl)amino)phenyl)-cyclopropanecarboxamide] | < 200 nM | < 200 nM |
